Measurements published in US5389641A, “Fused heterocyclic compounds, having angiotensin II antagonistic activity” (Takeda Chemical Industries, Ltd., priority 1991, dated 1995).

Tests used:
AII receptor = molecular target: T1, AII receptor (Bos taurus, UniProt P25104); assay: Inhibition of binding of [125I]-angiotensinII to AII receptor (radioreceptor assay); conditions: 1 h, membrane fraction from bovine adrenal cortex, room temperature, one hour; for inhibition at 1 µM: 10^-6 (M); for inhibition at 0.1 µM: 10^-7 (M)
T1 construct: An AII receptor membrane fraction was prepared from bovine adrenal cortex; from tissue; host or cells: bovine adrenal cortex, membrane fraction
T1 sequence (P25104 1-359): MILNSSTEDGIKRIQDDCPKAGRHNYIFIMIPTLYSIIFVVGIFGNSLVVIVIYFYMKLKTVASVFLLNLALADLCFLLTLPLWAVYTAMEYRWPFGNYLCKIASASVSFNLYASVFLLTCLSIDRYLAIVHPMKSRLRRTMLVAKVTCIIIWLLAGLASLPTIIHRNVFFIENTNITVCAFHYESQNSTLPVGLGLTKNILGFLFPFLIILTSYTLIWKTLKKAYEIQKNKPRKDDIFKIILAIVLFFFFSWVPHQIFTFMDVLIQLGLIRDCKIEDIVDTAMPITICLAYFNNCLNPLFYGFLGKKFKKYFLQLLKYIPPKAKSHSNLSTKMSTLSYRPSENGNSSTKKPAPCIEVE
Protocol: An experiment of inhibition on the binding of angiotensinII (AII) to AII receptor was conducted by modifying the method of Douglas et al. [Endocrinology, 102, 685-696 (1978)]. An AII receptor membrane fraction was prepared from bovine adrenal cortex.
The compound of the present invention (10 ^-6 M or 10^-7 M) and [^125 I]-angiotensinII ([^125 I]-AII) (1.85 kBq/50 μl) were added to the receptor membrane fraction, and the mixture was incubated at room temperature for one hour. The receptor-bound and free [^125 I]-AII were separated through a filter (Whatman GF/B filter), and the radioactivity of [^125 I]-AII bound to the receptor was measured.

[1] = reported in literature; cited from earlier work

SMILES	inhibition at 1 µM (AII receptor) [%]	inhibition at 0.1 µM (AII receptor) [%]	angiotensinII antagonist activity [1]
CCCCc1nc2c(C)cnc(C(=O)O)c2n1Cc1ccc(-c2ccccc2-c2nnn[nH]2)cc1 [Example 1, 2-Butyl-7-methyl-3-[[2'-(1H-tetrazol-5-yl)biphenyl-4-yl]methyl]-3H-imidazo[4,5-c]pyridine-4-carboxylic acid]	92	63	–
CCCc1nc2c(C)cnc(C(=O)O)c2n1Cc1ccc(-c2ccccc2-c2nnn[nH]2)cc1 [Example 2, 2-Propyl-7-methyl-3-[[2'-(1H-tetrazol-5-yl)biphenyl-4-yl]methyl]-3H-imidazo[4,5-c]pyridine-4-carboxylic acid]	92	54	–
CCc1cc2c(=O)c3cccc(C(=O)O)c3n(Cc3ccc(-c4ccccc4-c4nnn[nH]4)cc3)c2s1 [Example 3, 2-Ethyl-4-oxo-9-[[2'-(1H-tetrazol-5-yl)biphenyl-4-yl]methyl]-4,9-dihydrothieno[2,3-b]quinoline-8-carboxylic acid]	49	12	–
CCCc1cn2ncc(C(=O)O)c2n1Cc1ccc(-c2ccccc2-c2nn[nH]n2)cc1 [Example 6, 5-Propyl-4-[[2'-(1H-tetrazol-5-yl)biphenyl-4-yl]methyl]-imidazo[1,2-b]pyrazol-3-carboxylic acid]	91	60	–
CCCCc1nc2cccc(C(=O)O)c2n1Cc1ccc(-n2cccc2-c2nnn[nH]2)cc1 [Example 7, 2-Butyl-1-[[4-[2-(1H-tetrazol-5-yl)-1-pyrrolyl]phenyl]methyl]benzimidazole-7-carboxylic acid]	67	27	–
CCCc1nn2ncc(C(=O)O)c2n1Cc1ccc(-c2ccccc2-c2nnn[nH]2)cc1 [Example 11, 2-Propyl-1-[[2'-(1H-tetrazol-5-yl)biphenyl-4-yl]methyl]-1H-pyrazolo[1,5-b][1,2,4]triazole-7-carboxylic acid]	86	54	–
CCOc1nc(C(=O)O)c2c(n1)nc(OCC)n2Cc1ccc(-c2ccccc2-c2nnn[nH]2)cc1 [Example 13, 2,8-Diethoxy-7-[[2'-(1H-tetrazol-5-yl)biphenyl-4-yl]methyl]purine-6-carboxylic acid]	49	20	–
CCc1cc2c(=O)c3cccc(C(=O)OCOC(=O)C(C)(C)C)c3n(Cc3ccc(-c4ccccc4-c4nnn[nH]4)cc3)c2s1 [Example 14, Pivaloyloxymethyl 2-ethyl-4-oxo-9-[[2'-(1H-tetrazol-5-yl)biphenyl-4-yl]methyl]-4,9-dihydrothieno[2,3-b]quinoline-8-carboxylate]	69	31	–
CCc1cc2c(=O)c3cccc(C(=O)OC(C)OC(=O)OC4CCCCC4)c3n(Cc3ccc(-c4ccccc4-c4nnn[nH]4)cc3)c2s1 (stereo not drawn) [Example 15, 1-(Cyclohexyloxycarbonyloxy)ethyl 2-ethyl-4-oxo-9-[[2'-(1H-tetrazol-5-yl)biphenyl-4-yl]methyl]-4,9-dihydrothieno[2,3-b]quinoline-8-carboxylate]	19	1	–
CCCc1cc2cccc(C(=O)O)c2n1Cc1ccc(-c2ccccc2-c2nnn[nH]2)cc1 [Example 17, 2-Propyl-1-[[2'-(1H-tetrazol-5-yl)biphenyl-4-yl]methyl]indole-7-carboxylic acid]	39	0	–
CCCc1nn2ncc(C(=O)OCOC(=O)C(C)(C)C)c2n1Cc1ccc(-c2ccccc2-c2nnn[nH]2)cc1 [Example 20, Pivaloyloxymethyl 2-propyl-1-[[2'-(1H-tetrazol-5-yl)biphenyl-4-yl]methyl]-1H-pyrazolo[1,5-b][1,2,4]triazole-7-carboxylate]	61	21	–
CCCCc1nc2cccc(C(=O)O)c2n1Cc1ccc(-c2ccccc2-c2nnn[nH]2)nc1 [Example 21, 2-Butyl-1-[[2-[2-(1H-tetrazol-5-yl)phenyl]pyridin-5-yl]methyl]benzimidazole-7-carboxylic acid]	70	26	–
CCCCc1nc2cccc(C(=O)O)c2n1Cc1ccc2c(=O)n(-c3ccccc3-c3nnn[nH]3)cnc2c1 [Example 26, 2-Butyl-1-[[4-oxo-3-[2-(1H-tetrazol-5-yl)phenyl]-3,4-dihydroquinazolin-7-yl]methyl]benzimidazole-7-carboxylic acid]	80	39	–
CNCC(=O)N[C@@H](CCCN=C(N)N)C(=O)N[C@H](C(=O)N[C@@H](Cc1ccc(O)cc1)C(=O)N[C@H](C(=O)N[C@@H](Cc1cnc[nH]1)C(=O)N1CCC[C@H]1C(=O)N[C@@H](C)C(=O)O)C(C)C)C(C)C [saralasin]	–	–	potent
